The values that follow come from article PMC8259857, “Anti-tubercular activity and molecular docking studies of indolizine derivatives targeting mycobacterial InhA enzyme” (Journal of Enzyme Inhibition and Medicinal Chemistry, 2021).

Structures are written as SMILES. In brackets after ≈: the same amount, converted by molar mass.

The first assay concerns MDR-MTB (rifampicin and isoniazid-resistant MTB strain). The assay can be described thus: microbe, parasite or virus in culture. The format is cell-based, Mycobacterium tuberculosis. The note with it: MIC MDR-MTB versus MIC H37Rv.
For `CCOC(=O)c1cc(C(=O)c2ccc([N+](=O)[O-])cc2)n2ccccc12` [Compound 2d], the “fold reduced MDR-MTB activity compared to H37Rv MTB strain” value was determined as 8 fold. Regarding `CCOC(=O)c1c(C)c(C(=O)c2ccc(F)cc2)n2ccccc12` [Compound 3a], the “fold reduced MDR-MTB activity compared to H37Rv MTB strain” value was found to be 8 fold.

The same assay, now with this note: Mycobacterium tuberculosis, read-out: MIC MDR-MTB.
Consider `CCOC(=O)c1cc(C(=O)c2ccc([N+](=O)[O-])cc2)n2ccccc12` [Compound 2d], for which the MIC was found to be 64 µg/mL (≈ 189 µM). On to `CCOC(=O)c1c(C)c(C(=O)c2ccc(F)cc2)n2ccccc12` [Compound 3a], for which the MIC is 32 µg/mL (≈ 98.4 µM).

On to `CCOC(=O)c1c(C(=O)OCC)c2ccccn2c1C(=O)c1ccc(F)cc1` [Compound 4a, Diethyl-3-(4-fluorobenzoyl)indolizine-1,2-dicarboxylate], for which the MIC is 16 µg/mL (≈ 41.7 µM). On the same count and under the same terms, the value for `CCOC(=O)c1c(C(=O)OCC)c2ccccn2c1C(=O)c1ccc(Cl)cc1` [Compound 4b, Diethyl-3-(4-chlorobenzoyl)indolizine-1,2-dicarboxylate] was 16 µg/mL (≈ 40 µM); that for `CCOC(=O)c1c(C(=O)OCC)c2ccccn2c1C(=O)c1ccc([N+](=O)[O-])cc1` [Compound 4c, Diethyl-3-(4-nitrobenzoyl)indolizine-1,2-dicarboxylate] was 64 µg/mL (≈ 156 µM); that for `NNC(=O)c1ccncc1` [Isoniazid, reference compound] was ≥ 0.2 µg/mL.

As for `CO[C@H]1/C=C/O[C@@]2(C)Oc3c(C)c(O)c4c(O)c(c(/C=N/N5CCN(C)CC5)c(O)c4c3C2=O)NC(=O)/C(C)=C\C=C\[C@H](C)[C@H](O)[C@@H](C)[C@@H](O)[C@@H](C)[C@H](OC(C)=O)[C@@H]1C` [Rifampicin, reference compound], the MIC was ≥ 1 µg/mL.

Staying with this assay, now noted: isolates resistant to rifampicin (1 μg/mL) and isoniazid (0.2 μg/mL); NA: not active at the concentration range (0.2–64 μg/mL).
Consider `CCOC(=O)c1cc(C(=O)c2ccc(C)cc2)n2ccccc12` [Compound 2e], for which the “MIC MDR-MTB” value is on record as “completely abolished the activity”.

Take `CCOC(=O)c1cc(C(=O)c2ccc(C#N)cc2)n2ccccc12` [Compound 2f]: the “MIC MDR-MTB” value is “completely abolished the activity”.

Take `CCOC(=O)c1c(C)c(C(=O)c2ccc(Cl)cc2)n2ccccc12` [Compound 3b]: the “MIC MDR-MTB” value was “inactive”. Same read-out and setting: the value for `CCOC(=O)c1c(C)c(C(=O)c2ccc([N+](=O)[O-])cc2)n2ccccc12` [Compound 3d] was “inactive”.
